Experimental data taken from US9271943B2, “Arsenic compound solution and albumin nanoparticle and lyophilized preparation entrapping arsenic compound prepared using same” (ZHEJIANG CHINESE MEDICAL UNIVERSITY, priority 2011, dated 2016).

How the values were obtained:
[1] = test system: human T lymphoma cell lines jurkat cell; test: Mitochondrial membrane potential, JC-1 fluorescent probe; format: cell-based
Source text: Beyotime mitochondrial membrane potential detection kit (JC-1) is used; after the cells have been labeled with the fluorescent probe, they can be observed with a fluorescence microscope using conventional settings for observing red and green fluorescence, and photographed.
Measurement principle: The JC-1 fluorescent probe is used to detect mitochondrial potential; when the mitochondrial membrane potential is high, JC-1 aggregates in the mitochondrial matrix to form a polymer, which can produce red fluorescence; when the mitochondrial membrane potential is low, JC-1 can not aggregate in the mitochondrial matrix or the aggregation decreases, in this case, JC-1 exists in monomeric form and generates green fluorescence.
100 μl of suspension cultured cell liquid is centrifugalized and washed to obtain a sample. The sample is made into smears and observed by fluorescence microscopy, and three pictures are taken respectively by using conventional filter, red fluorescence, and green fluorescence sets in the same field of view. […]

[2] = test system: human T-cell lymphoma cell line jurkat cells; conditions: jurkat cells 2.0×10^5/ml, As2O3 0.5, 1.0, 2.0, 4.0 μmol/L; cited from earlier work
[3] = test system: human malignant B cell lymphoma cell line Raji cells; conditions: Raji cells 2.0×10^5/ml, 0.5˜2.0 μmol/L As2O3, 24, 48, 72 hours; cited from earlier work
[4] = test system: human T cell lymphoma cell line jurkat cells; test: Detection of apoptotic bodies by light microscopy; format: cell-based; conditions: 0.8 μg/ml As2O3, 24 h, FIG. 12B
Procedure: Human B lymphoma cell line Daudi cells and human T lymphoma cell line jurkat cells in the control group and As2O3-treated group ([…]) which have been cultured for 24 h are collected to prepare smears, Wright-Giemsa stained, and observed under a light microscope to determine the morphological changes of cells.
1) apoptotic bodies: human B lymphoma cell line Daudi cells and human T-cell lymphoma cell line jurkat cells in the control group and in the As2O3-treated group which have been cultured or treated for 24 h are collected to prepare smears, subjected to the detection of apoptotic bodies and photographed. The results are shown in FIGS. 12A and 12B; FIG. 12A is a light microscopy image of apoptotic bodies of human T cell lymphoma cell line jurkat cells in the control group; and FIG. 12B is a light microscopy image of apoptotic bodies of human T cell lymphoma cell line jurkat cells treated with […] As2O3, and the […] As2O3 is prepared as follows: the arsenic compound solution obtained in Example 1 is first diluted with deionized water to 80 μg/ml, and then diluted to […] with 1640 culture fluid.

[5] = test system: human B lymphoma cell line Daudi cells; test: Trypan blue count of survival and dead Daudi cells; format: cell-based; conditions: for Death rate / the number of survival cells: Daudi cells
Procedure: (§1) Human lymphoma cell line cells are cultured in RPMI 1640 culture medium containing 10% new-born calf serum, placed in a 5% CO2 incubator, and cultured at 37° C. with saturated humidity. The medium is changed every 1-2 days. When the cells grow well, the drug is applied to the cells.
The growing well human B lymphoma cell line Daudi cells are cultured in a 24-well plate; each well is inoculated with 1 ml of the cell culture with a cell density of 1.5χ10^5/ml, and they are divided into experimental and control groups. […], the cells in each group are treated with the arsenic compound solution with respective concentration in terms of As2O3 added, for example, the cells in 0.8 μg/ml As2O3 group are treated with 0.8 μg/ml arsenic compound solution, and the arsenic compound solutions with different concentration are prepared by the following method: the arsenic compound solution obtained in Example 1 is first diluted with deionized water to 80 μg/ml, and then diluted to the desired concentration with 1640 culture fluid to obtain arsenic compound solutions with different concentration. The control group is added with a equal volume of culture fluid. The 24-well plate is placed in a 5% CO2 incubator, the cells are cultured at 37° C. and saturated humidity for a predetermined time, and then detected correspondingly. The cell suspensions are stained by physiological saline solution of 0.3% trypan blue for counting survival, dead cells; and the results are shown in Table 2: […]

[6] = test system: human T-cell lymphoma cell line jurkat cells; test: Cell apoptosis by AnnexinV/PI double staining flow cytometry; format: cell-based; conditions: for Apoptotic rate / Early apoptotic rate / Early apoptotic rate + Apoptotic rate / Survival rate: jurkat cells, treated for 44 hours
Procedure: The human T-cell lymphoma cell line jurkat cells in exponential growth phase are inoculated into a 6-well plate and cultured; 3 ml of jurkat cells with a cell density of 2χ10^5/ml are inoculated into each well, and the 6-well plate is placed in a 37° C., 5% CO2 incubator. After being cultured for 4 hours, […], and the arsenic compound solutions with different final As2O3 concentrations are prepared as follows: the arsenic compound solution obtained in Example 1 is first diluted with deionized water to 80 μg/ml, and then diluted to the desired concentration with 1640 culture fluid. The control group is treated with an equivalent volume of 1640 culture fluid. After being treated for 44 hours, jurkat cells in the experimental and control groups with a cell density of 1χ10^6/ml are collected, and apoptosis is studied by AnnexinV/PI double staining flow cytometry.)
The cells in the experimental and control groups with a density of 1χ10^6 jurkat cells/ml are respectively collected, washed twice with PBS, and subjected to centrifugation at 1000 r/min for 5 min, and the supernatant is discarded. Each 100 μl of the cell suspension is mixed with 5 μL Annexin-V, and then mixed with 2 μL of propidium iodide (PI). The mixtures are incubated at room temperature and dark conditions for 15 min, then mixed with 400 μl of 1χAnnexin-V binding buffer after incubation, and placed in an ice water bath. Meanwhile, the flow cytometry instrument is subjected to regular correct, besides, the normal cells in the control group are collected to prepare positive control and negative control for dead cells and survival apoptotic cells to correct the instrument, so that the instrument has more precise control threshold for different characteristic samples. Then, the stained cells were detected by flow cytometry; and similar results are obtained by experiment repeated: […]

[7] = test system: human T-cell lymphoma cell line jurkat cells; test: Trypan blue count of survival and dead jurkat cells; format: cell-based; conditions: for effect on proliferation / cell growth of jurkat cells: 0.2-0.8 μg/ml, 24, 48, 72 h; for Death rate / the number of survival cells / total number of the cells: jurkat cells
Procedure: as §1
The human T-cell lymphoma cell line jurkat cells in exponential growth phase are inoculated into a 24-well plate and cultured; 1 ml of jurkat cells with a cell density of 2χ10^5/ml are inoculated into each well, and the 24-well plate is placed in a 37° C., 5% CO2 incubator. Jurkat cells are treated with the arsenic compound solutions with different final As2O3 concentrations of 0, 0.2, 0.4, 0.8 μg/ml for 24, 48, 72 hours, and the arsenic compound solutions with different final As2O3 concentrations are prepared as follows: the arsenic compound solution obtained in Example 1 is first diluted with deionized water to 80 μg/ml, and then diluted to the desired concentration with 1640 culture fluid. The treated cell suspensions are stained with physiological saline solution of 0.3% trypan blue for determining survival, dead cell count, and the results shown in Table 3: […]

Substance: arsenic trioxide [As2O3]
- number of the cells and red fluorescence intensity of JC-1 in the mitochondria ([1]; 0.4 μg/m As2O3 treated group compared with control group): have decreased significantly
- number of the cells and red fluorescence intensity of JC-1 in the cells ([1]; 0.8 As2O3 treated group compared with 0.4 μg/m group): have also decreased significantly
- effect on cell growth [2]: did not inhibit cell growth
- effect on cell growth (number of active cells) [3]: inhibited cell growth in a dose dependent manner
- morphological changes, apoptotic bodies [4]: nuclear fragmentation, cellular debris and apoptotic bodies appear
- effect on cell viability and growth of Daudi cells ([5]; 0.1-0.8 μg/ml, 20 h and 68 h, dose dependence): significantly reduce the cell viability
- Death rate ([5]; As2O3 0.1 μg/ml, 20 h): 33%
- the number of survival cells ([5]; As2O3 0.1 μg/ml, 20 h): 1.40 10^5/ml
- Death rate ([5]; As2O3 0.1 μg/ml, 68 h): 66%
- the number of survival cells ([5]; As2O3 0.1 μg/ml, 68 h): 1.24 10^5/ml
- Death rate ([5]; As2O3 0.2 μg/ml, 20 h): 44%
- the number of survival cells ([5]; As2O3 0.2 μg/ml, 20 h): 1.27 10^5/ml
- Death rate ([5]; As2O3 0.2 μg/ml, 68 h): 75%
- the number of survival cells ([5]; As2O3 0.2 μg/ml, 68 h): 0.77 10^5/ml
- Death rate ([5]; As2O3 0.4 μg/ml, 20 h): 56%
- the number of survival cells ([5]; As2O3 0.4 μg/ml, 20 h): 0.99 10^5/ml
- Death rate ([5]; As2O3 0.4 μg/ml, 68 h): 88%
- the number of survival cells ([5]; As2O3 0.4 μg/ml, 68 h): 0.30 10^5/ml
- Death rate ([5]; As2O3 0.8 μg/ml, 20 h): 68%
- the number of survival cells ([5]; As2O3 0.8 μg/ml, 20 h): 0.58 10^5/ml
- Death rate ([5]; As2O3 0.8 μg/ml, 68 h): 98%
- the number of survival cells ([5]; As2O3 0.8 μg/ml, 68 h): 0.06 10^5/ml
- sensitivity of Daudi cells to As2O3-induced cell death relative to jurkat cells ([5]; comparison of Table 2 with Table 3): more sensitive
- relation of jurkat cell apoptotic rate to concentration ([6]; R=0.997 (P<0.01), dose-dependent): positively correlated with the concentration
- Apoptotic rate ([6]; As2O3 0.2 μg/ml): 0.7%
- Early apoptotic rate ([6]; As2O3 0.2 μg/ml): 6.5%
- Early apoptotic rate + Apoptotic rate ([6]; As2O3 0.2 μg/ml): 7.2%
- Survival rate ([6]; As2O3 0.2 μg/ml): 92.8%
- Apoptotic rate ([6]; As2O3 0.4 μg/ml): 1.4%
- Early apoptotic rate ([6]; As2O3 0.4 μg/ml): 14.1%
- Early apoptotic rate + Apoptotic rate ([6]; As2O3 0.4 μg/ml): 15.5%
- Survival rate ([6]; As2O3 0.4 μg/ml): 84.5%
- Apoptotic rate ([6]; As2O3 0.8 μg/ml): 5.0%
- Early apoptotic rate ([6]; As2O3 0.8 μg/ml): 26.1%
- Early apoptotic rate + Apoptotic rate ([6]; As2O3 0.8 μg/ml): 31.0%
- Survival rate ([6]; As2O3 0.8 μg/ml): 69.0%
- Apoptotic rate ([6]; As2O3 1.6 μg/ml): 15.8%
- Early apoptotic rate ([6]; As2O3 1.6 μg/ml): 50.8%
- Early apoptotic rate + Apoptotic rate ([6]; As2O3 1.6 μg/ml): 66.6%
- Survival rate ([6]; As2O3 1.6 μg/ml): 33.4%
- effect on proliferation / cell growth of jurkat cells [7]: can inhibit cell growth
- effect on proliferation / cell growth of jurkat cells ([7]; listed as arsenic compound): significant inhibitory effect
- Death rate ([7]; As2O3 0.2 μg/ml, 24 h): 5.2%
- the number of survival cells ([7]; As2O3 0.2 μg/ml, 24 h): 7.56 10^5/ml
- total number of the cells ([7]; As2O3 0.2 μg/ml, 24 h): 7.98 10^5/ml
- Death rate ([7]; As2O3 0.2 μg/ml, 48 h): 16%
- the number of survival cells ([7]; As2O3 0.2 μg/ml, 48 h): 10.29 10^5/ml
- total number of the cells ([7]; As2O3 0.2 μg/ml, 48 h): 12.18 10^5/ml
- Death rate ([7]; As2O3 0.2 μg/ml, 72 h): 46.1%
- the number of survival cells ([7]; As2O3 0.2 μg/ml, 72 h): 4.95 10^5/ml
- total number of the cells ([7]; As2O3 0.2 μg/ml, 72 h): 9.19 10^5/ml
- Death rate ([7]; As2O3 0.4 μg/ml, 24 h): 25.9%
- the number of survival cells ([7]; As2O3 0.4 μg/ml, 24 h): 4.87 10^5/ml
- total number of the cells ([7]; As2O3 0.4 μg/ml, 24 h): 6.57 10^5/ml
- Death rate ([7]; As2O3 0.4 μg/ml, 48 h): 34%
- the number of survival cells ([7]; As2O3 0.4 μg/ml, 48 h): 5.12 10^5/ml
- total number of the cells ([7]; As2O3 0.4 μg/ml, 48 h): 7.73 10^5/ml
- Death rate ([7]; As2O3 0.4 μg/ml, 72 h): 50.9%
- the number of survival cells ([7]; As2O3 0.4 μg/ml, 72 h): 3.66 10^5/ml
- total number of the cells ([7]; As2O3 0.4 μg/ml, 72 h): 7.45 10^5/ml
- Death rate ([7]; As2O3 0.8 μg/ml, 24 h): 47.3%
- the number of survival cells ([7]; As2O3 0.8 μg/ml, 24 h): 2.92 10^5/ml
- total number of the cells ([7]; As2O3 0.8 μg/ml, 24 h): 5.53 10^5/ml
- Death rate ([7]; As2O3 0.8 μg/ml, 48 h): 55%
- the number of survival cells ([7]; As2O3 0.8 μg/ml, 48 h): 2.5 10^5/ml
- total number of the cells ([7]; As2O3 0.8 μg/ml, 48 h): 5.61 10^5/ml
- Death rate ([7]; As2O3 0.8 μg/ml, 72 h): 69.7%
- the number of survival cells ([7]; As2O3 0.8 μg/ml, 72 h): 1.84 10^5/ml
- total number of the cells ([7]; As2O3 0.8 μg/ml, 72 h): 6.08 10^5/ml
